Laboratory results: ChEMBL document CHEMBL2021794, “Synthesis, σ₁, σ₂-receptors binding affinity and antiproliferative action of new C1-substituted adamantanes” (Bioorg Med Chem, 2012)

Assays:
IGROV-1 [1] = test: Induction of apoptosis in human IGROV1 cells assessed as healthy cells at 50 uM after 24 hrs by Annexin V/7-AAD staining based flow cytometry (reference value: 86%); assay type: functional
[2] = Selectivity ratio of IC50 for human sigma-1 receptor to IC50 for rat sigma-2 receptor
IGROV-1 [3] = test: Induction of apoptosis in human IGROV1 cells assessed as late apoptotic cells at 0.5 uM after 24 hrs by Annexin V/7-AAD staining based flow cytometry (reference value: 4%); assay type: functional
BXPC-3 [4] = test: Cell cycle arrest in human BxPC3 cells assessed as accumulation at S phase at 0.5 uM after 24 hrs by propidium iodide staining based flow cytometry (reference value: 33%); assay type: functional
BXPC-3 [5] = test: Cell cycle arrest in human BxPC3 cells assessed as accumulation at G1 phase at 50 uM after 24 hrs by propidium iodide staining based flow cytometry (reference value: 41%); assay type: functional

CN1CCN(c2ccc(C(c3ccccc3)C34CC5CC(CC(C5)C3)C4)cc2)CC1 (stereo not given)
Activity (IGROV-1 [1]): 31%
Ratio IC50 [2]: 11.8
Activity (IGROV-1 [3]): 3%
Activity (BXPC-3 [4]): 34%
Activity (BXPC-3 [5]): 33%
